Molecular target: AMPA receptors
Assay: Displacement of 3H-AMPA binding, rat forebrain membranes
Settings: read-out: IC₅₀ (displacement of ³H-AMPA binding)
Protocol: The ability of test compounds to displace ³H-AMPA binding to rat forebrain membranes was determined by the method of Honore et al., Neurosci. Lett., 1985, 54, 27.

CCOC(=O)C1C(=O)Nc2cc([N+](=O)[O-])c([N+](=O)[O-])cc2C1=O (stereo not shown) [Example 50, Ethyl 6,7-Dinitro-2,4-dioxo-3-(1,2,3,4-tetrahydroquinoline)carboxylate]
IC50: < 50 µM
